Data from patent US10537575B2, “Phosphodiesterase inhibitors to repair brain and/or retinal injury in human newborns” (priority 2016, dated 2020).

Legend:
[1] = test system: Long-Evans rat pups (neonatal HI); experiment: Hippocampal injury and neuroinflammation after neonatal HI; type: in vivo; conditions: P30
Protocol: Neonatal HI was induced in male Long-Evans rat pups at postnatal day 10 (P10) by left common carotid ligation followed by 2-hour exposure to 8% oxygen. Sham operated rat pups served as control. […] At P30, rats were sacrificed and their brains extracted. CA1, CA3 and dentate gyrus (DG) areas of the ipsilateral hippocampus were analyzed for microgliosis (Iba1) and astrogliosis (GFAP), neuronal number (NeuN), and vascular density (collagen IV).

[2] = test system: Long-Evans rat pups (term neonatal HIE model); experiment: Endothelial cells count (lectin staining) at P30; type: in vivo; conditions: HI, not significant
Protocol: Using the third slide prepared for each animal, an immunohistochemistry was used to assess the endothelial cells count. Sections were labeled with lectin (biotinylated isolectin B4) (Sigma-Aldrich: L2140, St-Louis, Mo., USA) (dilution 20 μg/mL in 0.1M tris-buffered saline [pH 7.4] and 0.5% Triton X-100, incubation time 2 hours at room temperature) (Springer M L et al., 2010). To detect lectin binding, the sections were incubated with streptavidin Alexa Fluor® 350 conjugate (Molecular Probes®, Life Technologies: S11249, Carlsbad, Calif., USA) dilution 1:300 in tris-buffered saline, incubation time 2 hours at room temperature (Ndode-Ekane X E et al., 2010). Then, these sections were rinsed with tris-buffered saline and cover slipped with Vectashield Mounting media containing 4,6-diamidino-2-phenylindole (DAPI) (Vector Laboratories: H1200, Burlingame, Calif., USA) to visualize cell nuclei (Ndode-Ekane X E et al., 2010; Hallene K L et al., 2006). The endothelial cells count was assessed as per previously described methods (Hallene K L et al., 2006, Iwai M et al., 2007; Noguchi T et al., 2008; Rigau V et al., 2007; Wintermark P et al., 2013). Cells co-labeled with lectin and DAPI were identified as endothelial cells (Springer M L et al., 2010; Hallene K L et al., 2006). To estimate the density of microvessels, single immunoreactive endothelial cells were counted as individual microvessels; endothelial staining in large vessels with tunica media were disregarded in the microvessel counts (Hallene K L et al., 2006, Iwai M et al., 2007; Noguchi T et al., 2008; Rigau V et al., 2007; Wintermark P et al., 2013; Shaikh H et al., 2015). […] One investigator took pictures of the respective fields of view at 10× magnification.

[3] = test system: Sprague-Dawley rats (rat model of ROP); experiment: Flash electroretinograms in rat model of ROP (hyperoxia); type: in vivo; conditions: sildenafil 50 mg/kg per os twice daily P15 to P21, P29, p<0.05
Protocol: (§1) Sprague-Dawley rats were exposed to hyperoxia (i.e., 80% oxygen) interrupted by three 0.5-hour periods of normoxia (i.e., 21% oxygen) per day or room air only (i.e., 21% oxygen) from post-natal day 4 (P4) to 14 (P14). Pups were then housed in room air. […] Flash electroretinograms were recorded at P29 to assess the retinal function. At P31, retinas were extracted, sectioned and stained with toluidine blue to measure the thicknesses of the different retinal layers.

[4] = test system: Sprague-Dawley rats (rat model of ROP); experiment: Retinal layer thickness in rat model of ROP (hyperoxia); type: in vivo; conditions: ROP animals; sildenafil 50 mg/kg per os twice daily P15 to P21; P31; p<0.05
Protocol: as §1

[5] = Body weight and animal deaths in Vannucci rat model of term neonatal HIE
Protocol: A well-established Vannucci rat model of term neonatal HIE, which combined a left common carotid artery ligation and a 2 hour exposure to hypoxia (8% oxygen) in 10-day-old (P10) rat pups, was used for the experiments, since this model is generally recognized to mimic the brain injuries observed in human term asphyxiated newborns. Briefly, the 10-day-old male Long-Evans rat pups were weighed and then deeply anesthetized with an intraperitoneal injection of fentanyl (0.2 mg/kg) and midazolam (1 mg/kg) to the point of unresponsiveness to noxious stimulation. Lidocaine-prilocaine cream (EMLA®; AstraZeneca Inc.) was applied to the ventral neck skin 30 minutes before surgery. The skin was cleaned with 2% chlorhexidine solution followed by 70% alcohol. A vertical incision was made along the ventral surface of the neck. The left common carotid artery was located, isolated, and then ligated with a single tight suture. Following the unilateral ligation, the skin incision was closed with an adhesive (n-butyl cyanoacrylate; 3 M VetBond Tissue Adhesive®; 3 M USA). The anesthesia was reversed with an intraperitoneal injection of naloxone (0.1 mg/kg) and flumazenil (1 mg/kg). […] For each rat pup, anesthesia time and surgical time were kept to a minimal time of less than 5-10 minutes. The pups were allowed to recover for approximately 1.5 h after surgery and then were placed in a sealed hypoxia chamber (Plastic Concepts, North Billerica, USA). The sealed chamber was infused with nitrogen until a level of 8% oxygen was reached, which was maintained for 2 h (oxygen analyzer model 600, Engineered Systems & Designs, Newark, Del.). The pups were allowed to recover for 30 minutes and then were returned to their cages with the mother. The rats undergoing the whole procedure were considered as the hypoxic-ischemic (HI) group (n=10-12 animals/groups). Sham operated rat pups (identical procedure as the HI group, but not the ligation and hypoxia) served as the control group (n=10-12 animals/groups). The sample size of the current study was a sample size of convenience, subject to restrictions imposed by the institutional ethics committee that reviewed it, and based on the principles of the 3Rs (replacement, reduction, and refinement). Sham rat pups received the same sedation as HI rat pups permitting to control for the effect of sedation on the brain. Normal body temperature of both sham and HI rat pups, while they were separated from the mother, was maintained during the whole procedure (i.e., surgery±hypoxia) using warming blankets (Cincinnati Sub-Zero, Cincinnati, USA).

[6] = test system: Long-Evans rat pups (neonatal HI); experiment: White matter myelination, oligodendrocytes and neuroinflammation after neonatal HI; type: in vivo; conditions: P30
Protocol: Neonatal HI was induced in male Long-Evans rat pups at postnatal day 10 (P10) by left common carotid ligation followed by 2-hour exposure to 8% oxygen. Sham operated rat pups served as control. […] At P30, rats were sacrificed and their brains extracted. Hematoxylin and eosin staining was performed to analyze the structure of the myelin sheath. Olig2 and CC-1 immunostaining were performed to assess the proportion of mature oligodendrocyte to total oligodendrocytes. GFAP, Iba1, and Mac2 immunostaining was used to label reactive astrocytes and activated microglia. Collagen IV was used to investigate microvessels. Corpus callosum and left external capsule were the 2 regions where these markers were assessed to evaluate “white matter”.

## CCCc1nn(C)c2c(=O)[nH]c(-c3cc(S(=O)(=O)N4CCN(C)CC4)ccc3OCC)nc12 [sildenafil]
[1]; HI, 50 mg/kg, vs sham vehicle
  neuronal number in the dentate gyrus: significantly increases
[1]; HI, higher doses (10 mg/kg and 50 mg/kg)
  number of activated microglia and reactive astrocytes in CA1 and dentate gyrus of the hippocampus: significantly reduced
[1]; treatment groups vs control group
  vascular density in hippocampus: no changes in vascular density
[2]; sildenafil 2 mg/kg
  endothelial cells number, median (IQR): 230 (158; 273) endothelial cells/mm^2
[2]; sildenafil 10 mg/kg (first mention, medium-dose)
  endothelial cells number, median (IQR): 196 (157; 225) endothelial cells/mm^2
[2]; sildenafil 10 mg/kg as printed (second mention, third of low/medium/high)
  endothelial cells number, median (IQR): 193 (151; 217) endothelial cells/mm^2
[3]
  scotopic and photopic b-wave amplitudes: improvement in scotopic and photopic b-wave amplitudes
[4]
  OPL thickness: improved OPL thickness
[5]; HI group, sildenafil 2 mg/kg
  incidence of animal deaths: 4/12
[5]; HI group, sildenafil 10 mg/kg
  incidence of animal deaths: 2/11
[5]; HI group, sildenafil 50 mg/kg
  incidence of animal deaths: 3/11
[5]; sham groups
  incidence of animal deaths: no animals died
[6]; HI, all dosage
  myelin sheath thickness in corpus callosum and left external capsule: reverted the myelin sheath thickness back to levels comparable to sham vehicle rat animals
[6]
  microvessel density in the white matter: no changes
[6]; after sildenafil
  number of total and mature oligodendrocytes in the left external capsule: no changes
[6]; higher doses of sildenafil
  reactive astrocytosis and microgliosis in the corpus callosum and left external capsule: significant reduction
[6]; sildenafil 50 mg/kg
  number of mature oligodendrocytes in the corpus callosum: significantly increased
  number of total oligodendrocytes in the corpus callosum: significantly increased
